Experiment [1] concerns the target T1, T1R2/T1R3 receptor (Homo sapiens, UniProt Q7RTX0+Q8TE23).
T1 sequence (Q8TE23 20-839): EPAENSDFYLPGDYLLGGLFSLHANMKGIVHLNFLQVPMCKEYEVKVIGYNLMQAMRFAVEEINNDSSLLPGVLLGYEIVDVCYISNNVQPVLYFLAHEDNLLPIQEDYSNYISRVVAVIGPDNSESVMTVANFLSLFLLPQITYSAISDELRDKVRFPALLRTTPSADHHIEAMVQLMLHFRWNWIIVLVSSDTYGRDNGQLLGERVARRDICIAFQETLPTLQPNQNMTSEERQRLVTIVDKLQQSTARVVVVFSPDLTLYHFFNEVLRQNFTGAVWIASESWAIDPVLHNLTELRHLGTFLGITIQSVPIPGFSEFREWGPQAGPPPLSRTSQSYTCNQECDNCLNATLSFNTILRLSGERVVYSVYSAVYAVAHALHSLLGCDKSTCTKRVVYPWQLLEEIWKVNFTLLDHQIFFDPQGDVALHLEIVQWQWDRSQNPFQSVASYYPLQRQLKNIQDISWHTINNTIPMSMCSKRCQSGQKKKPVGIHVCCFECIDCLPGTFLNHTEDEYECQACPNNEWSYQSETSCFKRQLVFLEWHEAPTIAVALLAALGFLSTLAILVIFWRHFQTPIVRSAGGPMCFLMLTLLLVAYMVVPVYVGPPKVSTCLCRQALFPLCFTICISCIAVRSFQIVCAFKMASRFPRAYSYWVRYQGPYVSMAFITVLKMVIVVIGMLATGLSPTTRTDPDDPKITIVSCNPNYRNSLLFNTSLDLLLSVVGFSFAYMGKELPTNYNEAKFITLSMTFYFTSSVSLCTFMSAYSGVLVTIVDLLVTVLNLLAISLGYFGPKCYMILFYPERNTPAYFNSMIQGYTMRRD
T1 sequence (Q7RTX0 21-852): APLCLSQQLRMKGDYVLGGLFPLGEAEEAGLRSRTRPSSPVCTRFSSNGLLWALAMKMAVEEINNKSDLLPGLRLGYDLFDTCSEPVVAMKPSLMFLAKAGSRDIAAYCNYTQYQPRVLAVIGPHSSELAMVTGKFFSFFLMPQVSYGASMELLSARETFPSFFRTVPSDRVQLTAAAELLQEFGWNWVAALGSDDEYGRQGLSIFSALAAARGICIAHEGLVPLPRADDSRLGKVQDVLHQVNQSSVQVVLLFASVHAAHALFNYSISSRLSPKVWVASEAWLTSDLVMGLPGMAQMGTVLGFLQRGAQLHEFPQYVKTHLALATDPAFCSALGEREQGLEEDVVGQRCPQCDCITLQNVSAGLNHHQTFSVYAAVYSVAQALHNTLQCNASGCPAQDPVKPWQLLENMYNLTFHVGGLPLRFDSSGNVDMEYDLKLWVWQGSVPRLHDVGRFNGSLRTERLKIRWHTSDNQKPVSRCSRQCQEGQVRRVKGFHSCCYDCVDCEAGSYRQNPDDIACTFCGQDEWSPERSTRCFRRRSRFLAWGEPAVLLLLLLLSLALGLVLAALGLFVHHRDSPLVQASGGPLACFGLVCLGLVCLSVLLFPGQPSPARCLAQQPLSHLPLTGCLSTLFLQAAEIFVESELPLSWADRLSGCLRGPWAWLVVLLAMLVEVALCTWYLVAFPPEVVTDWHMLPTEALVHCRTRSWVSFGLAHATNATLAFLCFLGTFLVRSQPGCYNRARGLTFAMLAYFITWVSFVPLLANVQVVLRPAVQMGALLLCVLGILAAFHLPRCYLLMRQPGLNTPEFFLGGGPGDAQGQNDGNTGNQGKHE
Kind of experiment: activation of the T1R2/T1R3 receptor. It is filed as cell-based. From the text: The present isolated compounds have been tested and shown sweet taste modifying activities.

The subject of experiment [2] is human panelists (sweetness). Kind of experiment: paired comparison (2-AFC) taste test for sweetness with human panelists. It is filed as in vivo. The method, then: Test samples containing experimental compounds were presented in pairs to the human panelist and they were asked to determine which of the sample is sweeter. […] A group of 10-16 or more panelists participated in each test. Subjects refrained from eating or drinking (except water) for at least 1 hour prior to the test. Subjects rinsed with water several times to clean the mouth.
Taste tests were performed with sucrose or HFCS as the sweetener in the presence or absence of compound. A 0.2% stock solution of compound in water with sodium bicarbonate was prepared and then this stock solution was diluted in the final sample to achieve the targeted final concentration of compound. For the sample evaluated at pH 2.8 the pH of the solution is decreased to about pH 2.8 using citric acid. Taste samples were also prepared in a low sodium phosphate buffer (pH 7.1; “LSB”) lacking sucrose or HFCS to evaluate the taste of the compound alone. Low sodium phosphate buffer consists of 0.3 mM KCl, 0.5 mM Na2HPO4, and 0.175 mM KH2PO4. Sample volumes are usually 20 ml.
In one paired comparison test, the panelist was presented with two different samples and asked to identify the sample which is sweeter. The samples within a paired comparison test were presented in a randomized, counterbalanced order. Panelists had up to a 1 minute delay between taste tests to clear the mouth of any tastes.
Binomial probability tables were used to determine the probability of the correct number of responses occurring for each test at alpha=0.05
Paired comparison taste test for sweetness (0.25 mL sample size)

Where [3] appears, read: 4% sucrose vs 0% sucrose + 100 ppm compound, pH 7.1, total 36.
Where [4] appears, read: 4% sucrose vs 0% sucrose + 125 ppm compound, pH 7.1, total 42.
Setting [5] is: 4% sucrose vs 0% sucrose + 150 ppm compound, pH 7.1, total 36.
The mark [6] stands for this setting: 4% sucrose vs 0% sucrose + 87 ppm compound, LSB pH 7.1, total 42.

Turning to `COCC(C1CCC(C)C(OC2OC(C)C(O)C(O)C2O)O1)C1CCC2C3=CC(=O)C4CC(OC5OC(CO)C(O)C(O)C5O)CCC4(C)C3CCC21C` (centres unmarked) [Polypodoside E], a half-maximal response in experiment [1] (EC50) required 18.4 µM.
Still for that read-out and setting: as for `CC1CCC(C(C)C2CCC3C4=CC(=O)C5CC(OC6OC(CO)C(OC7OC(C)C(O)C(O)C7O)C(O)C6O)CCC5(C)C4CCC32C)OC1OC1OC(C)C(O)C(O)C1O` (centres unmarked) [Polypodoside G], the figure is 18.7 µM.
With `C=C1C[C@@]23CC[C@H]4[C@@](C)(CCC[C@@]4(C)C(=O)O[C@@H]4O[C@H](CO)[C@@H](O)[C@H](O)[C@H]4O)[C@@H]2CC[C@]1(O[C@@H]1O[C@H](CO)[C@@H](O)[C@H](O[C@@H]2O[C@H](CO)[C@@H](O)[C@H](O)[C@H]2O)[C@H]1O[C@@H]1O[C@H](CO)[C@@H](O)[C@H](O)[C@H]1O)C3` [Reb A, Rebaudioside A], the “concentration equivalent to 4% sucrose” value in experiment [2] (2-AFC, pH 7.1) is recorded as 125 ppm Reb A is equivalent to 4% sucrose. Besides, the “Sample selected as sweeter by panelists: 0% Sucrose + Cmpd” value is reported as 8 in experiment [2] (setting [3]), 22 in experiment [2] (setting [4]) and 24 in experiment [2] (setting [5]). The “Sample selected as sweeter by panelists: 4% Sucrose” value is reported as 28 in experiment [2] (setting [3]), 20 in experiment [2] (setting [4]) and 12 in experiment [2] (setting [5]).
For Polypodoside D, the EC50 (commonly the concentration at which the effect is half-maximal) in experiment [1] was found to be 4.15 µM. In addition, in experiment [2] (setting [6]), the “Sample selected as sweeter by panelists: 0% Sucrose + Cmpd” value amounted to 18 and the “Sample selected as sweeter by panelists: 4% Sucrose” value turned out to be 24. The “sweetness of 4% Sucrose compared with the sample (in words)” value in experiment [2] (4% sucrose vs LSB + 87 ppm compound, pH ~7.1) is “not significantly different in sweetness”. In experiment [2] (compared with Rebaudioside A), the “sweet taste and potency in sensory studies (in words)” value was “has a sweet taste and demonstrates higher potency than Rebaudioside A”.
